Results as given in publication PMC3984044 (ChemMedChem, 2013).
Where a name gives a salt, the structure may show the parent alone. Read-outs that look alike come from different tables or passages of the source.

Tests used:
[1] = in vivo; conditions: mouse, po, 10 mg/kg
[2] = mouse, in vivo; cited from earlier work
[3] = tested on: PrP^Sc levels in ScN2a-cl3 cells; assay: cells; format: cell-based, mouse
[4] = in vitro; conditions: mouse, microsomes
[5] = mouse, microsomes
[6] = Mus musculus, read-out: EC50 ± SEM(nM)

Cc1cccc(Nc2nc(-c3ccc(-c4ccccc4)cc3)cs2)n1 [Compound 1, (4-Biphenyl-4-yl-thiazol-2-yl)-(6-methyl-pyridin-2-yl)-amine]
Cmax [1]: 2450 ± 740 nM
oral bioavailability (%F) [2]: ~40%
EC50 [3, 6]: 1290 ± 122 nM
half-life [4]: > 60 min

Cc1cccc(Nc2nc(-c3ccc(-c4ccncc4)cc3)cs2)n1 [Compound 12, (6-Methyl-pyridin-2-yl)-[4-(4-pyridin-4-yl-phenyl)-thiazol-2-yl]-amine]
fold greater antiprion potency than 1 [3]: > 10 fold
EC50 [3, 6]: 87 ± 43 nM
half-life [4]: > 60 min

Cc1cccc(Nc2nc(-c3ccc(-c4cc[n+]([O-])cc4)cc3)cs2)n1 [Compound 13, 4-(4-(2-((6-Methylpyridin-2-yl)amino)thiazol-4-yl)phenyl)pyridine 1-oxide]
EC50 [3, 6]: 559 ± 120 nM

Cc1cccc(Nc2nc(-c3ccc(-c4ccncc4C)cc3)cs2)n1 [Compound 14, (6-Methyl-pyridin-2-yl)-{4-[4-(3-methyl-pyridin-4-yl)-phenyl]-thiazol-2-yl}-amine trifluoro acetic acid salt]
EC50 [3, 6]: 400 ± 61 nM

Cc1cccc(Nc2nc(-c3ccc(-c4cccnc4)cc3)cs2)n1 [Compound 15, (6-Methyl-pyridin-2-yl)-[4-(4-pyridin-3-yl-phenyl)-thiazol-2-yl]-amine]
fold greater antiprion potency than 1 [3]: > 10 fold
EC50 [3, 6]: 68 ± 13 nM
half-life [4]: > 60 min

Cc1cccc(Nc2nc(-c3ccc(-c4ccc[n+]([O-])c4)cc3)cs2)n1 [Compound 16, 3-(4-(2-((6-Methylpyridin-2-yl)amino)thiazol-4-yl)phenyl)pyridine 1-oxide]
Cmax [1]: 900 ± 240 nM
AUC ([1]; AUC (μM *h) Brain): 3.85 ± 0.52 µM·h
AUC ([1]; AUC (μM *h) Plasma): 11.5 ± 0.71 µM·h
EC50 [3, 6]: 203 ± 10 nM
half-life [4]: > 60 min

Cc1cccc(Nc2nc(-c3ccc(-c4cccnc4C)cc3)cs2)n1 [Compound 17, (6-Methyl-pyridin-2-yl)-{4-[4-(2-methyl-pyridin-3-yl)-phenyl]-thiazol-2-yl}-amine trifluoro acetic acid salt]
EC50 [3, 6]: 618 ± 54 nM

Cc1cccc(Nc2nc(-c3ccc(-c4ccnn4C)cc3)cs2)n1 [Compound 18, {4-[4-(2-Methyl-2H-pyrazol-3-yl)-phenyl]-thiazol-2-yl}-(6-methyl-pyridin-2-yl)-amine]
EC50 [3, 6]: 89 ± 35 nM

Cc1cccc(Nc2nc(-c3ccc(-c4c(C)noc4C)cc3)cs2)n1 [Compound 19, {4-[4-(3,5-Dimethyl-isoxazol-4-yl)-phenyl]-thiazol-2-yl}-(6-methyl-pyridin-2-yl)-amine]
EC50 [3, 6]: 2130 ± 226 nM

Cc1cccc(Nc2nc(-c3ccc(N4CCN(C)CC4)cc3)cs2)n1 [Compound 20, {4-[4-(4-Methyl-piperazin-1-yl)-phenyl]-thiazol-2-yl}-(6-methyl-pyridin-2-yl)-amine]
EC50 [3, 6]: 840 ± 132 nM

Cc1cccc(Nc2nc(-c3ccc(N4CCOCC4)cc3)cs2)n1 [Compound 21, (6-Methyl-pyridin-2-yl)-[4-(4-morpholin-4-yl-phenyl)-thiazol-2-yl]-amine]
EC50 [3, 6]: 51 ± 7 nM

COCCOc1cccc(Nc2nc(-c3ccc(-c4ccccc4)cc3)cs2)n1 [Compound 22, 4-([1,1′-Biphenyl]-4-yl)-N-(6-(2-methoxyethoxy)pyridin-2-yl)thiazol-2-amine]
antiprion activity (in words) [3]: inactive
EC50 [3, 6]: > 10000 nM

CN(C)c1cccc(Nc2nc(-c3ccc(-c4ccccc4)cc3)cs2)n1 [Compound 23, N2-(4-([1,1′-biphenyl]-4-yl)thiazol-2-yl)-N6,N6-dimethylpyridine-2,6-diamine]
EC50 [3, 6]: 699 ± 87 nM

CN1CCN(c2cccc(Nc3nc(-c4ccc(-c5ccccc5)cc4)cs3)n2)CC1 [Compound 24, 4-([1,1′-Biphenyl]-4-yl)-N-(6-(4-methylpiperazin-1-yl)pyridin-2-yl)thiazol-2-amine]
EC50 [3, 6]: 1180 ± 206 nM

COc1ccc(-c2ccc(-c3csc(Nc4cccc(C)n4)n3)cc2)cn1 [Compound 25, {4-[4-(6-Methoxy-pyridin-3-yl)-phenyl]-thiazol-2-yl}-(6-methyl-pyridin-2-yl)-amine]
EC50 [3, 6]: 140 ± 23 nM

COCCOc1cc(-c2ccc(-c3csc(Nc4cccc(C)n4)n3)cc2)ccn1 [Compound 26, 4-(4-(2-(2-methoxyethoxy)pyridin-4-yl)phenyl)-N-(6-methylpyridin-2-yl)thiazol-2-amine]
Cmax [1]: 330 ± 160 nM
AUC ([1]; AUC (μM *h) Brain): 1.04 ± 0.13 µM·h
EC50 [3, 6]: 153 ± 36 nM

COCCOc1ccc(-c2ccc(-c3csc(Nc4cccc(C)n4)n3)cc2)cn1 [Compound 27, 4-(4-(6-(2-methoxyethoxy)pyridin-3-yl)phenyl)-N-(6-methylpyridin-2-yl)thiazol-2-amine]
Cmax [1]: 970 ± 220 nM
AUC ([1]; AUC (μM *h) Brain): 3.27 ± 0.44 µM·h
AUC ([1]; AUC (μM *h) Plasma): 6.75 ± 0.45 µM·h
EC50 [3, 6]: 137 ± 13 nM
half-life [4]: > 60 min

Cc1cccc(Nc2nc(-c3ccc(-c4ccnc(OC(C)C)c4)cc3)cs2)n1 [Compound 28, 4-(4-(2-isopropoxypyridin-4-yl)phenyl)-N-(6-methylpyridin-2-yl)thiazol-2-amine]
EC50 [3, 6]: 2840 ± 22 nM

Cc1cccc(Nc2nc(-c3ccc(-c4ccc(OC(C)C)nc4)cc3)cs2)n1 [Compound 29, 4-(4-(6-Isopropoxypyridin-3-yl)phenyl)-N-(6-methylpyridin-2-yl)thiazol-2-amine]
EC50 [3, 6]: 5860 ± 327 nM

Cc1cccc(Nc2nc(-c3ccc(-c4ccnc(N(C)C)c4)cc3)cs2)n1 [Compound 30, 4-(4-(2-(dimethylamino)pyridin-4-yl)phenyl)-N-(6-methylpyridin-2-yl)thiazol-2-amine]
EC50 [3, 6]: 123 ± 35 nM

Cc1cccc(Nc2nc(-c3ccc(-c4ccc(N(C)C)nc4)cc3)cs2)n1 [Compound 31, 4-(4-(6-(Dimethylamino)pyridin-3-yl)phenyl)-N-(6-methylpyridin-2-yl)thiazol-2-amine]
EC50 [3, 6]: 69 ± 21 nM

Cc1cccc(Nc2nc(-c3ccc(-c4ccnc(N5CCN(C)CC5)c4)cc3)cs2)n1 [Compound 32, 4-(4-(2-(4-methylpiperazin-1-yl)pyridin-4-yl)phenyl)-N-(6-methylpyridin-2-yl)thiazol-2-amine]
Cmax [1]: 1170 ± 190 nM
AUC ([1]; AUC (μM *h) Brain): 5.22 ± 0.1 µM·h
AUC ([1]; AUC (μM *h) Plasma): 1.57 ± 0.15 µM·h
EC50 [3, 6]: 759 ± 374 nM
half-life [4]: 6.8 min

Cc1cccc(Nc2nc(-c3ccc(-c4ccc(N5CCN(C)CC5)nc4)cc3)cs2)n1 [Compound 33, 4-(4-(6-(4-Methylpiperazin-1-yl)pyridin-3-yl)phenyl)-N-(6-methylpyridin-2-yl)thiazol-2-amine]
EC50 [3, 6]: 96 ± 31 nM

O=C(Nc1nc(-c2ccc(-c3ccccc3)cc2)cs1)C1CC1 [Compound 34, cyclopropanecarboxylic acid (4-biphenyl-thiazol-2-yl)-amide]
T1/2 [5]: >60 min
EC50 ([3]; read-out: EC50 ± SEM): 248 ± 67 nM

O=C(Nc1nc(-c2ccc(-c3ccncc3)cc2)cs1)C1CC1 [Compound 39, Cyclopropanecarboxylic acid [4-(4-pyridin-4-yl-phenyl)-thiazol-2-yl]-amide trifluoroacetic acid salt]
EC50 [3, 6]: 173 ± 16 nM

Cc1ncccc1-c1ccc(-c2csc(NC(=O)C3CC3)n2)cc1 [Compound 40, Cyclopropanecarboxylic acid {4-[4-(2-methyl-pyridin-3-yl)-phenyl]-thiazol-2-yl}-amide]
EC50 [3, 6]: > 10000 nM

CN(C)c1ccc(-c2ccc(-c3csc(NC(=O)C4CC4)n3)cc2)cn1 [Compound 41, Cyclopropanecarboxylic acid {4-[4-(6-dimethylamino-pyridin-3-yl)-phenyl]-thiazol-2-yl}-amide]
EC50 [3, 6]: 109 ± 12 nM

Cn1nccc1-c1ccc(-c2csc(NC(=O)C3CC3)n2)cc1 [Compound 42, Cyclopropanecarboxylic acid {4-[4-(2-methyl-2H-pyrazol-3-yl)-phenyl]-thiazol-2-yl}-amide]
EC50 [3, 6]: > 10000 nM

Cc1noc(C)c1-c1ccc(-c2csc(NC(=O)C3CC3)n2)cc1 [Compound 43, Cyclopropanecarboxylic acid {4-[4-(3,5-dimethyl-isoxazol-4-yl)-phenyl]-thiazol-2-yl}-amide]
EC50 [3, 6]: > 10000 nM

COCCOc1cc(-c2ccc(-c3csc(NC(=O)C4CC4)n3)cc2)ccn1 [Compound 44, N-(4-(4-(2-(2-methoxyethoxy)pyridin-4-yl)phenyl)thiazol-2-yl)cyclopropanecarboxamide]
EC50 [3, 6]: 1320 ± 233 nM

CN1CCN(c2cc(-c3ccc(-c4csc(NC(=O)C5CC5)n4)cc3)ccn2)CC1 [Compound 45, N-(4-(4-(2-(4-methylpiperazin-1-yl)pyridin-4-yl)phenyl)thiazol-2-yl)cyclopropanecarboxamide]
Cmax [1]: 250 ± 110 nM
AUC ([1]; AUC (μM *h) Brain): 1.29 ± 0.02 µM·h
AUC ([1]; AUC (μM *h) Plasma): 0.76 ± 0.01 µM·h
EC50 [3, 6]: 682 ± 100 nM
half-life [4]: 4.4 min

COCCOc1ccc(-c2ccc(-c3csc(NC(=O)C4CC4)n3)cc2)cn1 [Compound 46, N-(4-(4-(6-(2-methoxyethoxy)pyridin-3-yl)phenyl)thiazol-2-yl)cyclopropanecarboxamide]
Cmax [1]: 150 ± 10 nM
AUC ([1]; AUC (μM *h) Brain): 0.32 µM·h
AUC ([1]; AUC (μM *h) Plasma): 0.26 ± 0.01 µM·h
EC50 [3, 6]: 118 ± 11 nM
half-life [4]: 55 min

CN1CCN(c2ccc(-c3ccc(-c4csc(NC(=O)C5CC5)n4)cc3)cn2)CC1 [Compound 47, N-(4-(4-(6-(4-methylpiperazin-1-yl)pyridin-3-yl)pheyl)thiazol-2-yl)cyclopropanecarboxamide]
T1/2 [5]: 2.5 min
EC50 ([3]; read-out: EC50 ± SEM): 70 ± 23 nM
